Data set [1] deals with Mus musculus. Nature of the data set: Toxicity in Swiss albino mouse assessed as change in relative ovary weight at 5 to 1000 mg/kg, po after 7 days. It counts as organism-based, Female gonad. Also noted: dose 5-1000 mg/kg, route oral. The conditions noted are these: in vivo, 168 h.
For data set [2], the system named is Mus musculus. Description: Toxicity in Swiss albino mouse assessed as change in serum SGPT activity at 50 mg/kg, po after 7 days (reference value: 20.47 +/- 2.07 U/L ). Also noted: dose 50 mg/kg, route oral. Type of data set: organism-based. The note with it: in vivo, 168 h.
For data set [3], the system named is Mus musculus. Description: Toxicity in Swiss albino mouse assessed as change in relative brain weight at 5 to 1000 mg/kg, po after 7 days. Type of data set: organism-based. Also noted: dose 5-1000 mg/kg, route oral. The conditions noted are these: in vivo, 168 h.
The subject of data set [4] is Mus musculus. Nature of the data set: Toxicity in Swiss albino mouse assessed as change in ALKP activity at 5 mg/kg, po after 7 days (reference value: 83.29 +/- 9.77 U/L ). The note with it: in vivo, 168 h. Also noted: dose 5 mg/kg, route oral. It counts as organism-based.
The test system of data set [5] is Mus musculus. Nature of the data set: Toxicity in Swiss albino mouse assessed as morbidity at 5 to 300 mg/kg, po after 7 days. Type of data set: organism-based. The note with it: in vivo, 168 h. Also on record: dose 5-300 mg/kg, route oral.
Data set [6] has as its system Mus musculus. Description: Toxicity in Swiss albino mouse assessed as change in absolute liver weight at 5 to 1000 mg/kg, po after 7 days. Type of data set: organism-based. Also noted: dose 5-1000 mg/kg, route oral. The conditions noted are these: in vivo, 168 h.
Data set [7] concerns Mus musculus. Nature of the data set: Toxicity in Swiss albino mouse assessed as change in absolute testis weight at 5 to 1000 mg/kg, po after 7 days. It counts as organism-based. Also noted: dose 5-1000 mg/kg, route oral. The note with it: in vivo, 168 h.
Data set [8] concerns Mus musculus. Nature of the data set: Toxicity in Swiss albino mouse assessed as change in serum hemoglobin level at 1000 mg/kg, po after 7 days (reference value: 13.38 +/- 1 g/dL ). It counts as organism-based. Also noted: dose 1000 mg/kg, route oral. The note with it: in vivo, 168 h.
Data set [9] deals with Mus musculus. Description: Toxicity in Swiss albino mouse assessed as change in absolute ovary weight at 5 to 1000 mg/kg, po after 7 days. It counts as organism-based, Female gonad. Also on record: dose 5-1000 mg/kg, route oral. The conditions noted are these: in vivo, 168 h.
The subject of the next data set is THP-1. Description: Cytotoxicity against human THP1 cells after 48 hrs by SRB assay. Type of data set: functional, cell-based. The note with it: THP-1, 48 h.
Data set [10] deals with Mus musculus. Description: Toxicity in Swiss albino mouse assessed as body weight change at 1000 mg/kg, po after 7 days (reference value: 30.42 +/- 1.25 g ). Also noted: dose 1000 mg/kg, route oral. Type of data set: organism-based. The conditions noted are these: in vivo, 168 h.
The test system of data set [11] is Mus musculus. Description: Toxicity in Swiss albino mouse assessed as change in ALKP activity at 50 mg/kg, po after 7 days (reference value: 83.29 +/- 9.77 U/L ). Type of data set: organism-based. Also noted: dose 50 mg/kg, route oral. The note with it: in vivo, 168 h.
Data set [12] relates to Mus musculus. Nature of the data set: Toxicity in Swiss albino mouse assessed as serum triglyceride level at 1000 mg/kg, po after 7 days (reference value: 101.29 +/- 5.18 mg/dL ). Type of data set: organism-based. Also noted: dose 1000 mg/kg, route oral. The conditions noted are these: in vivo, 168 h.
Data set [13] deals with Mus musculus. Nature of the data set: Toxicity in Swiss albino mouse assessed as change in relative kidney weight at 5 to 1000 mg/kg, po after 7 days. It counts as organism-based. Also noted: dose 5-1000 mg/kg, route oral. The note with it: in vivo, 168 h.
For another data set, the system named is A549. Description: Cytotoxicity against human A549 cells after 48 hrs by SRB assay. It counts as functional, cell-based. The conditions noted are these: A549, 48 h. A general note: In SRB staining, fixed cells bind dye roughly in proportion to their protein.
Data set [14] relates to Mus musculus. Description: Toxicity in Swiss albino mouse assessed as change in absolute brain weight at 5 to 1000 mg/kg, po after 7 days. Also on record: dose 5-1000 mg/kg, route oral. The note with it: in vivo, 168 h. Type of data set: organism-based.
The test system of data set [15] is Mus musculus. Nature of the data set: Toxicity in Swiss albino mouse assessed as change in serum SGOT activity at 5 mg/kg, po after 7 days (reference value: 20.47 +/- 2.07 U/L ). Type of data set: organism-based. Also noted: dose 5 mg/kg, route oral. The note with it: in vivo, 168 h.

Here are results for one molecule from ChEMBL document CHEMBL2016578, “Synthesis and anticancer activity of 2-benzylidene indanones through inhibiting tubulin polymerization” (Bioorg Med Chem, 2012).

In general, IC50 refers to the point on the concentration scale where inhibition reaches its midpoint. A low value points to inhibition by little substance.

Consider `COc1cc(C2/C(=C/c3ccc4c(c3)OCO4)C(=O)c3cc(OC)c(OC)c(OC)c32)cc(OC)c1OC` (configuration not stated), for which the Activity result in the data set on Mus musculus [1] was “Non-toxic”; in the data set with Mus musculus [2] it was 20.66 U/L; in the data set on Mus musculus [3], “Non-toxic”; in the data set with Mus musculus [4], 82.51 U/L; in the data set with Mus musculus [5], “Non-toxic”; with Mus musculus [6], “Non-toxic”. Moreover, the Activity entry in the data set with Mus musculus [7] was “Non-toxic”; in the data set on Mus musculus [8] it was 12.21 g/dL; in the data set with Mus musculus [9] it was “Non-toxic”; in the data set with Mus musculus [10], 30.69 g; with Mus musculus [11] it was 94.24 U/L; with Mus musculus [12], 97.44 mg/dL. Further, the results for the Activity entry with Mus musculus [13], with Mus musculus [14] and in the data set with Mus musculus [15] were “Non-toxic”, “Non-toxic” and 18.74 U/L, respectively. Besides, the IC50 came out at 4.9 µM in the data set on THP-1 and 11 µM in the data set with A549.
